Test [1] has as its target T1, human PTHR1 (Homo sapiens, UniProt Q03431).
T1 construct: expressed in transfected cells; host or cells: GP2.3 (HEK293-derived)
T1 sequence (Q03431 27-593): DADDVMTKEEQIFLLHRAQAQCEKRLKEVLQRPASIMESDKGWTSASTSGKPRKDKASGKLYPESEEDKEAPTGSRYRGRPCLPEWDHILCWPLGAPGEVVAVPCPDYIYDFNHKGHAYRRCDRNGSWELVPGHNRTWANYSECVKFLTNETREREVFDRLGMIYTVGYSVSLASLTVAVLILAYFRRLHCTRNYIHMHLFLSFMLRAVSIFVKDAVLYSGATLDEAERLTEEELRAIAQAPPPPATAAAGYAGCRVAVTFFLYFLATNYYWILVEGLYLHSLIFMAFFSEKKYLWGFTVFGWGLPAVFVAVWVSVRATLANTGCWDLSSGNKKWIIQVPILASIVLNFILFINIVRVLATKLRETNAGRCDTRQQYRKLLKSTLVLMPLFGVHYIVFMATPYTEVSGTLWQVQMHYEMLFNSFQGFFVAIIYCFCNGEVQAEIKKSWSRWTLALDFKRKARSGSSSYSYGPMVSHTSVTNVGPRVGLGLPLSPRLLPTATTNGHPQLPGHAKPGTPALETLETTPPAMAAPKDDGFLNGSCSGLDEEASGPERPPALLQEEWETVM
The test can be described thus: PTH-stimulated cAMP formation in GP2.3 reporter cells (Glosensor). Type of test: cell-based. The conditions noted are these: GP2.3 cells; synthetic peptides; mean ± SEM, n = 3; maximum luminescence 20 to 23 min. How it is done: (§1) SGS-72 cells, i.e., human osteosarcoma SaOS-2 cells stably expressing the Glosensor cAMP reporter, were maintained in modified McCoy’s 5A medium [15% FBS, 1% penicillin/streptomycin, and 1% nonessential amino acids, as described ([29])]. GP2.3 cells, i.e., HEK293 cells stably expressing the human PTHR1 and the Glosensor cAMP reporter, were maintained in DMEM (10% FBS, 1% penicillin/streptomycin), as described ([24]). Cells were seeded into 96‐well white plates (40,000 cells/100µL/well); 24 to 48 h after confluency, the wells were rinsed with 100 µL carbon dioxide-independent culture medium (CIDB; Life Technologies) containing 0.1% bovine serum albumin (BSA), which was then replaced with 90 µL of luciferin (0.5 mM in CIDB) for 15 min before adding 10 µL of increasing concentrations of PTH analogs diluted in CIDB or 10 µL of CIDB, and then measuring cAMP‐dependent luminescence at 2‐min intervals using a PerkinElmer Envision plate reader (PerkinElmer), as described ([24]). […] GP2.3 cells were also used for the evaluation of CM from transfected COS-7 cells; PTH(1-84) served as control.
(cAMP levels reflect the balance of adenylyl cyclase and phosphodiesterase activity.)

Test [2] addresses T2, human PTHR1 (SGS-72 cells, SaOS-2 derived) (Homo sapiens, UniProt Q03431).
T2 construct: SGS-72 cells, i.e., human osteosarcoma SaOS-2 cells stably expressing the Glosensor cAMP reporter; endogenous in cells; host or cells: SGS-72 (human osteosarcoma SaOS-2-derived)
T2 sequence (Q03431 27-593): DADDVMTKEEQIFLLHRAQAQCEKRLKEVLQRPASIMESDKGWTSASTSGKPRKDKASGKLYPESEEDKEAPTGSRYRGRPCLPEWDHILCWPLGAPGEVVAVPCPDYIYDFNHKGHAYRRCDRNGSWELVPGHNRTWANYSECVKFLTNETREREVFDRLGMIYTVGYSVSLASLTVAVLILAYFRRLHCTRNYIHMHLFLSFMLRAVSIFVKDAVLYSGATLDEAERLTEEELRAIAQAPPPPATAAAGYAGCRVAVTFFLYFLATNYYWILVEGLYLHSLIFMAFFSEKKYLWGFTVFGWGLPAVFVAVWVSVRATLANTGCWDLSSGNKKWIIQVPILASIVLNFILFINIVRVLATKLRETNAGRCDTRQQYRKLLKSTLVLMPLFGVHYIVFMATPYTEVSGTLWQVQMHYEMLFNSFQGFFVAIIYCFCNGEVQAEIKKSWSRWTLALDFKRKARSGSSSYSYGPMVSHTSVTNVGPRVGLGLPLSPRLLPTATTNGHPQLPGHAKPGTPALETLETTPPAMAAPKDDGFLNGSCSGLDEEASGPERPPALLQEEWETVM
The test is described as follows: PTH-stimulated cAMP formation in SGS-72 reporter cells (Glosensor). The settings on record: synthetic peptides, mean ± SEM, n = 3 (Fig. 2B), read-out: EC50 for cAMP formation. Type of test: cell-based. Here is the method:
as §1
SGS-72 cells were used for assessing PTH-stimulated cAMP formation. 10 µL of increasing concentrations of [S1]PTH(−6 to +34) or [P1]PTH(−6 to +34) before and after incubation with furin were diluted in CIDB buffer.

Test [3] deals with anti-[P1]PTH(−6 to +3)^Biotin antibody. The test is described as follows: Epitope characterization ELISA with anti-[P1]PTH(−6 to +3)^Biotin capture antibody. Type of test: binding. The conditions noted are these: anti-[P1]PTH(−6 to +3)^Biotin capture, anti-PTH(13-34) HRP detection; n = 2 to 4. The source says: For additional characterization of our anti-[P1]PTH(−6 to +3) antibody, we biotin-labeled this antibody for use as capture antibody (anti-[P1]PTH(−6 to +3)^Biotin antibody) in combination with the HRP-labeled detection antibody from the intact PTH assay (Immutopics) that is directed against PTH(13-34) (SI Appendix, Fig. S3).
(§2) pro[P1]PTH(−6 to +3) was conjugated to SulfoLink coupling gel via the C-terminal cysteine (PIERCE) for affinity purification of the rabbit antibodies, which were then HRP-labeled using EZ-Link Plus Activated Peroxidase Kit (Thermo Fisher Scientific), following the manufacturer’s protocol. The anti-pro[P1]PTH(−6 to +3) antibody was also conjugated to biotin using EZ-LinkTM Sulfo-NHS-LC-Biotinylation Kit (Thermo Fisher Scientific), following the manufacturer’s protocol, except using 40-fold instead of 20-fold excess of biotin. After biotin coupling, 15% of rabbit serum were added to the biotinylated antibody [anti-pro[P1]PTH(−6 to +3)^Biotin].
100 Defining the epitope of the antibody raised against [P1]PTH(-6 to +15) that was affinity purified with
101 immobilized [P1]PTH(-6 to +3).
102 The anti-[P1]PTH(-6 to +3) antibody was coupled to biotin (anti-[P1]PTH(-6 to +3)Biotin antibody) and
103 used as capture antibody in combination with the detection anti-PTH(13-34) antibody provided in
104 the intact PTH assay (Immutopics). Epitope of the affinity purified anti-[P1]PTH(-6 to +3)Biotin
105 antibody was partially defined by using [P1]PTH(-6 to +34) and [S1]PTH(-6 to +34), as well as
111 recognized by the anti-[P1]PTH(-6 to +3)Biotin antibody resides predominantly in the -6 to -4 region.
(1 picture or pasted object on this page, not shown here)
In general terms: In an ELISA, binding on a coated surface is turned into a signal by an enzyme label.

Test [4] concerns anti-pro[P1]PTH^HRP antibody. The test is described as follows: pro[P1]PTH immunoassay with anti-pro[P1]PTH^HRP detection antibody. Type of test: binding.
Source text: To allow quantification of pro[P1]PTH in CM and in plasma of our patients with the homozygous P1 mutation, we replaced the detection antibody in an intact PTH assay (Immutopics) with a horseradish peroxidase (HRP)-labeled antibody raised against pro[P1]PTH(−6 to +15), which was affinity purified with pro[P1]PTH(−6 to +3) (anti-pro[P1]PTH^HRP antibody) (Materials and Methods).
as §2, with “+3)^Biotin]. […]” for “+3)^Biotin].”

Six molecules from paper PMC9974466 (Proceedings of the National Academy of Sciences of the …, 2023) can be followed below.

“Also recorded” adds a separate entry of the source. Ends that are not written are not given here.

As usually defined, the EC50 is the midpoint of the concentration-response curve. On to `CC[C@H](C)[C@H](NC(=O)[C@H](CCC(=O)O)NC(=O)[C@H](CO)NC(=O)[C@@H](NC(=O)[C@@H]1CCCN1)C(C)C)C(=O)N[C@@H](CCC(N)=O)C(=O)N[C@@H](CC(C)C)C(=O)N[C@@H](CCSC)C(=O)N[C@@H](Cc1c[nH]cn1)C(=O)N[C@@H](CC(N)=O)C(=O)N[C@@H](CC(C)C)C(=O)NCC(=O)N[C@@H](CCCCN)C(=O)N[C@@H](Cc1c[nH]cn1)C(=O)N[C@@H](CC(C)C)C(=O)N[C@@H](CC(N)=O)C(=O)N[C@@H](CO)C(=O)N[C@@H](CCSC)C(=O)N[C@@H](CCC(=O)O)C(=O)N[C@@H](CCCNC(=N)N)C(=O)N[C@H](C(=O)N[C@@H](CCC(=O)O)C(=O)N[C@@H](Cc1c[nH]c2ccccc12)C(=O)N[C@@H](CC(C)C)C(=O)N[C@@H](CCCNC(=N)N)C(=O)N[C@@H](CCCCN)C(=O)N[C@@H](CCCCN)C(=O)N[C@@H](CC(C)C)C(=O)N[C@@H](CCC(N)=O)C(=O)N[C@@H](CC(=O)O)C(=O)N[C@H](C(=O)N[C@@H](Cc1c[nH]cn1)C(=O)N[C@@H](CC(N)=O)C(=O)N[C@@H](Cc1ccccc1)C(N)=O)C(C)C)C(C)C` [[P1]PTH(1-34)], for which the EC50 in test [1] is 3.2 ± 0.9 nM; in test [2], 0.5 ± 0.3 nM. Take “PTH(2-34): synthetic amino-terminally shortened peptide (VSEIQLMHNLGKHLNSMERVEWLRKKLQDVHNF-NH2; UniProt P01270 33-65, looked up, fragment)”: in test [3], the “Detection / cross-reactivity (in words)” value is “only minimal cross-reactivity at very high concentrations”.

On to “PTH(3-34): synthetic amino-terminally shortened peptide (SEIQLMHNLGKHLNSMERVEWLRKKLQDVHNF-NH2; UniProt P01270 34-65, looked up, fragment)”, for which, in test [3], the “Detection / cross-reactivity (in words)” value is given as “not detected at all”.

On to “PTH(4-34): synthetic amino-terminally shortened peptide (EIQLMHNLGKHLNSMERVEWLRKKLQDVHNF-NH2; UniProt P01270 35-65, looked up, fragment)”, for which the “Detection / cross-reactivity (in words)” value in test [3] is listed as “not detected at all”.

B1: SVSEIQ … LMHNLGKHLNSMERVEWLRKKLQDVHNFVALGAPLAPRDAGSQRPRKKEDNVLVESHEKSLGEADKADVNVLTKAKSQ (protein, UniProt P01270 32-115, looked up)
Parathyroid hormone: SVSEIQLMHNLGKHLNSMERVEWLRKKLQDVHNFVALGAPLAPRDAGSQRPRKKEDNVLVESHEKSLGEADKADVNVLTKAKSQ
modifications: Parathyroid hormone
notes: Recombinant PTH(1-84) was from Chugai Pharmaceutical Co., Ltd
As for B1, in test [4] (vs. pro[P1]PTH, up to very high concentrations), the “Detection / cross-reactivity in pro[P1]PTH assay” value is recorded as “barely detected; also recorded: minimal even at very high concentrations; also recorded: extremely low”.

B2: pro[P1]PTH: mutant pro-hormone secreted by COS-7 cells expressing prepro[P1]PTH(1-84) and present in patients' plasma (protein, UniProt P01270 26-115, looked up, variant S1P)
pro-form: KSVKKRPVSEIQLMHNLGKHLNSMERVEWLRKKLQDVHNFVALGAPLAPRDAGSQRPRKKEDNVLVESHEKSLGEADKADVNVLTKAKSQ
modifications: pro-form
notes: mutant pro-hormone secreted by COS-7 cells expressing prepro[P1]PTH(1-84) and present in patients' plasma
On to B2, for which, in test [4] (capture anti-PTH(39-84), HRP detection, CM standard), the “Half maximum binding of the anti-pro[P1]PTH^HRP detection antibody” value is given as 1,032 pg/mL. In addition, the Half-maximal binding in test [3] is reported as 1,330 pg/mL.
